The text below walks through data of paper PMC2644305 (Nature chemical biology, 2009).

Molecules are shown by their SMILES.

The test addresses FACL19 (Mycobacterium tuberculosis, UniProt P9WQ51).

Take `Nc1ncnc2c1ncn2[C@@H]1O[C@H](COP(=O)(O)OP(=O)(O)OP(=O)(O)O)[C@@H](O)[C@H]1O` [compound 3, ATP]: the KM result was “no significant change in KM was observed for ATP”.
The result for `CC(C)(COP(=O)(O)OP(=O)(O)OC[C@H]1O[C@@H](n2cnc3c(N)ncnc32)[C@H](O)[C@@H]1OP(=O)(O)O)[C@@H](O)C(=O)NCCC(=O)NCCS` [compound 1, CoASH] reads “Kinetic analysis of CoA formation by wild type FACL19 and FACL19i proteins”.
